pIC50: −log10 of the molar value.
Experiments:
[1] = biological target: recombinant kinase domain of the human c-Met (amino acids 960-1390) (Homo sapiens (Human), UniProt P08581); assay: c-Met receptor tyrosine kinase homogeneous time-resolved fluorescence assay (alternative format); type: biochemical; conditions: HTRF format; ATP 10 μM
Source text: c-Met Receptor Tyrosine Kinase Homogeneous Time-Resolved Fluorescence Assay (Alternative Format):
The N-terminally His6-tagged recombinant kinase domain of the human c-Met (amino acids 960-1390), expressed in insect cells (SF21) and purified by Ni-NTA affinity chromatography and consecutive size exclusion chromatography (Superdex 200), is used. Alternatively, commercially available c-Met (Millipore) can be used. As substrate for the kinase reaction, the biotinylated poly-Glu, Tyr (4:1) copolymer (#61GTOBLC, Cis Biointernational, Marcoule, France) is used.
For the assay, […] of a 100-fold concentrated solution of the test compound in DMSO is pipetted into a black low-volume 384-well microtiter plate (Greiner Bio-One, Frickenhausen, Germany). 2 μL of a solution of c-Met in assay buffer [25 mM Hepes/NaOH, pH 7.5; 5 mM MgCl2; 5 mM MnCl2; 2 mM dithiothreitol; 0.1% (v/v) Tween 20 (Sigma); 0.1% (w/v) bovine serum albumin] are added, and the mixture is incubated for 15 min at 22° C. to allow pre-binding of the test compound to the enzyme before the start of the kinase reaction. Then, the kinase reaction is started by the addition of 3 μL of a solution of adenosine triphosphate (ATP, 16.7 μM; final concentration in the 5 μL assay volume is 10 μM) and substrate (2.27 μg/mL, final concentration in the 5 μL assay volume is 1.36 μg/mL ˜30 nM) in assay buffer, and the resulting mixture is incubated for a reaction time of 30 min at 22° C. The concentration of c-Met in the assay is adjusted depending on the activity of the enzyme lot and is appropriately chosen to have the assay in the linear range; typical enzyme concentrations are in the range of about 0.03 nM (final concentration in the 5 μL assay volume). The reaction is stopped by the addition of 5 μL of a solution of HTRF detection reagents [40 nM streptavidine-X Lent and 2.4 nM PT66-Eu-chelate, an europium-chelate labelled anti-phosphotyrosine antibody (Perkin-Elmer)] in an aqueous EDTA solution [100 mM EDTA, 0.2% (w/v) bovine serum albumin in 50 mM HEPES/NaOH, pH 7.5].
The resulting mixture is incubated for 1 h at 22° C. to allow the binding of the biotinylated phosphorylated peptide to the streptavidine-XLent and the PT66-Eu-chelate. Subsequently, the amount of phosphorylated substrate is evaluated by measurement of the resonance energy transfer from the PT66-Eu-chelate to the streptavidine-XLent. Therefore, the fluorescence emissions at 620 nm and 665 nm after excitation at 350 nm are measured in an HTRF reader, e.g. Rubystar (BMG Lab-technologies, Offenburg, Germany) or Viewlux (Perkin-Elmer). The ratio of the emissions at 665 nm and at […] is taken as the measure for the amount of phosphorylated substrate. The data are normalised (enzyme reaction without inhibitor=0% inhibition; all other assay components but no enzyme=100% inhibition).

[2] = Caco-2 permeability assay; type: in vitro ADME; conditions: human, apical to basolateral, 2 h at 37° C., Table 3, read-out: Caco-2 permeability PappA-B
Source text: Caco-2 Permeability Assay:
The in vitro permeation of a test compound across a Caco-2 cell monolayer is a well-established assay system to predict the permeability from the gastro-intestinal tract [cf. P. Artursson and J. Karlsson: Correlation between oral drug absorption in humans and apparent drug permeability coefficients in human intestinal epithelial (Caco-2) cells, Biochem. Biophys. 175 (3), 880-885 (1991)]. The permeability of the compounds of the present invention in such Caco-2 cells was determined as described below:
Human caco-2 cells (ACC No. 169, DSMZ, German Collection of Microorganisms and Cell Cultures, Braunschweig, Germany) are seeded on 24-well insert plates and are allowed to grow for 14-16 days. For permeability studies, the test compounds are dissolved in DMSO and diluted to the final test concentration of 2 μM with transport buffer [Hanks' Buffered Salt Solution, Gibco/Invitrogen, further supplemented with glucose (final concentration 19.9 mM) and HEPES (final concentration 9.8 mM)]. For determination of the apical to basolateral permeability (PappA-B), the test compound solution is added to the apical side of the cell monolayer and transport buffer to the basolateral side of the monolayer; for determination of the basolateral to apical permeability (PappB-A), the test compound solution is added to the basolateral side of the cell monolayer and transport buffer to the apical side of the monolayer. Samples are taken from the donor compartment at the beginning of the experiment to confirm mass balance. After an incubation of 2 h at 37° C., samples are taken from both compartments. Samples are analyzed by LC-MS/MS, and the apparent permeability coefficients are calculated. Lucifer Yellow permeability is assayed for each cell monolayer to ensure cell monolayer integrity, and the permeability of Atenolol (low permeability marker) and Sulfasalazine (marker for active excretion) is determined for each batch as quality control.

[3] = Pharmacokinetics after peroral administration of test compounds; type: in vivo, rat; conditions: for in vivo PK, rat p.o. F / in vivo PK, rat p.o. AUCnorm: male Wistar rats; for in vivo PK, rat p.o. F: bioavailability; for in vivo PK, rat p.o. AUCnorm: dose and body weight-normalized AUC; for Fraction absorbed fabs, calc: rat p.o., fabs,calc=[F/Fmax,calc]*100
Procedure: Pharmacokinetics after Peroral Administration of Test Compounds: Male Wistar rats (Harlan Laboratories) are anesthetized and a catheter is inserted into the jugular vein of the rat. The next day, a defined dose of the test compound is administered perorally. Blood samples are collected through the jugular catheter during the next 24 h (8-11 time points). Blood is centrifuged in heparin-tubes, and each plasma sample is treated with acetonitrile for protein precipitation. After centrifugation, the test compound in the supernatant is quantified using an LC-MS/MS method. The determined plasma concentrations are used for the determination of pharmacokinetic parameters, such as AUC (area under the plasma concentration vs. time curve), Cmax (highest test compound concentration observed in plasma following administration), t1/2 (half-life) and F (bioavailability). The fraction of the dose absorbed (fabs,calc) is calculated by the equation fabs,calc=[F/Fmax,calc]*100, wherein F is the determined bioavailability after peroral administration and Fmax,calc is the theoretically maximum achievable bioavailability considering the determined blood clearance and assuming that the test compound is completely absorbed.

Chain of recombinant kinase domain of the human c-Met (amino acids 960-1390) (P08581 960-1390): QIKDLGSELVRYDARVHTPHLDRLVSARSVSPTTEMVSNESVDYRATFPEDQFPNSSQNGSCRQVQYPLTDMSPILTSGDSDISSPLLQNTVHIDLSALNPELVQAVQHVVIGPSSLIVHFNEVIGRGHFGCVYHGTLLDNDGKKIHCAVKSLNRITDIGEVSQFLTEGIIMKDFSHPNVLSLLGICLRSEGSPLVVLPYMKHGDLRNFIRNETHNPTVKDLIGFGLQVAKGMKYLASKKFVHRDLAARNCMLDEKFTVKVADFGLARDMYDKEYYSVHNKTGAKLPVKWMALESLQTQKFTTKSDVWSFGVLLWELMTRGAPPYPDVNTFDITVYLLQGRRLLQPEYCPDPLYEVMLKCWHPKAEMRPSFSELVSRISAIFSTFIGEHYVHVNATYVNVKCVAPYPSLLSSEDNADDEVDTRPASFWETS

Row | Compound | pIC50 [1] | Papp at 2 h, 2 μM [2] [×10⁻⁶ cm/s] | in vivo PK, rat p.o. F [3] [%] | in vivo PK, rat p.o. AUCnorm [3] [kg·h/L] | Fraction absorbed fabs, calc [3] [%]
1 | Cc1n[nH]c2cc(F)c(C3C(C#N)=C(C(F)F)NC(C(F)F)=C3C#N)cc12 [Example 14, 2,6-Bis(difluoromethyl)-4-(6-fluoro-3-methyl-1H-indazol-5-yl)-1,4-dihydropyridine-3,5-dicarbonitrile] | 8.52 | 27.1 | 62 | 4.73 | 67
2 | CC1=C(C#N)C(c2ccc3[nH]nc(C)c3c2)C(C#N)=C(C(F)(F)F)N1 (single isomer, unassigned) [Example 6] | 9.00 | 31.1 | 62 | 0.70 | 104
3 | CC1=C(C#N)C(c2ccc3[nH]nc(C)c3c2)C(C#N)=C(C(F)F)N1 (single isomer, unassigned) [Example 3, 2-(Difluoromethyl)-6-methyl-4-(3-methyl-1H-indazol-5-yl)-1,4-dihydropyridine-3,5-dicarbonitrile] | 8.70 | 16.4 | 33 | 0.16 | 131
